In the first assay the target is His-tagged N-terminal ATP binding domain (amino acid residues 9-236) of HSP90α (Homo sapiens, UniProt P07900). The assay is described as follows: HSP90 inhibitor binding potency: TRF competition binding assay. The settings on record: Table I; read-out: Hsp90 IC50 Range. Put shortly:
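Competition against biotinylated radicicol for binding to the His-tagged 9-236 ATP domain of HSP90α: 2 h, room temperature, HEPES/MgCl2/KCl/BSA buffer. Streptavidin capture, then europium-labeled anti-His antibody and enhancement solution; europium counts give IC50.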
Take `Cc1cccnc1-c1ccccc1C1CC(=O)c2c(C)nc(N)nc2C1` (centres unmarked) [Compound 120, 2-amino-4-methyl-7-[2-(3-methylpyridin-2-yl)phenyl]-7,8-dihydroquinazolin-5(6H)-one]: the IC50 – broadly, the point on the concentration scale where inhibition reaches its midpoint – is 1000 to 10000 nM.

With `Cc1nc(N)nc2c1C(=O)CC(c1ccccc1-c1ccc(F)cc1)C2` (centres unmarked) [Compound 53, 2-amino-7-(4′-fluoro-1,1′-biphenyl-2-yl)-4-methyl-7,8-dihydroquinazolin-5(6H)-one], the 50% inhibitory concentration (IC50) is below 1000 nM.

On to `Cc1nc(N)nc2c1C(=O)CC(c1ccccc1-c1cn[nH]c1)C2` (centres unmarked) [Compound 39, 2-amino-4-methyl-7-[2-(1H-pyrazol-4-yl)phenyl]-7,8-dihydroquinazolin-5(6H)-one], for which the IC50 was in the range of 1000 to 10000 nM.

Regarding `COc1ccccc1-c1cc(F)ccc1C1CC(=O)c2c(C)nc(N)nc2C1` (centres unmarked) [Compound 95, 2-amino-7-(5-fluoro-2′-methoxy-biphenyl-2-yl)-4-methyl-7,8-dihydro-6H-quinazolin-5-one], the IC50 is below 1000 nM.

Consider `Cc1nc(N)nc2c1C(=O)CC(c1cccc(-c3cccnc3F)c1)C2` (centres unmarked) [Compound 54], for which the half-inhibitory concentration (IC50) is above 10000 nM.

As for `Cc1nc(N)nc2c1C(=O)CC(c1cnccc1Oc1ccccc1)C2` (centres unmarked) [Compound 24, 2-Amino-4-methyl-7-(4-phenoxy-pyridin-3-yl)-7,8-dihydro-6H-quinazolin-5-one], the half-maximal inhibitory concentration (IC50) is below 1000 nM.

As for `Cc1nc(N)nc2c1C(=O)CC(c1ccccc1-c1ccccn1)C2` (centres unmarked) [Compound 25, 2-amino-4-methyl-7-(2-pyridin-2-ylphenyl)-7,8-dihydroquinazolin-5(6H)-one], the IC50 is below 1000 nM.

Turning to `COc1cncc(-c2ccccc2C2CC(=O)c3c(C)nc(N)nc3C2)c1` (centres unmarked) [Compound 73, 2-amino-7-[2-(5-methoxypyridin-3-yl)phenyl]-4-methyl-7,8-dihydroquinazolin-5(6H)-one], the 50% inhibitory concentration (IC50) fell in the range of 1000 to 10000 nM.

On to `Cc1nc(N)nc2c1C(=O)CC(c1ccccc1Oc1cccc(F)c1)C2` (centres unmarked) [Compound 137, 2-amino-7-[2-(3-fluorophenoxy)phenyl]-4-methyl-7,8-dihydroquinazolin-5(6H)-one], for which the IC50 was below 1000 nM.

On to `Cc1ccnc(-c2ccccc2C2CC(=O)c3c(C)nc(N)nc3C2)c1` (centres unmarked) [Compound 118, 2-amino-4-methyl-7-[2-(4-methylpyridin-2-yl)phenyl]-7,8-dihydroquinazolin-5(6H)-one], for which the IC50 was below 1000 nM.

Turning to `Cc1nc(N)nc2c1C(=O)CC(c1c(O)cccc1Cl)C2` (centres unmarked) [Compound 168, 2-Amino-7-(2-chloro-6-hydroxy-phenyl)-4-methyl-7,8-dihydro-6H-quinazolin-5-one], the IC50 was above 10000 nM.

As to `COc1cccc(-c2ccccc2C2CC(=O)c3c(C)nc(N)nc3C2)c1` (centres unmarked) [Compound 69, 2-amino-7-(3′-methoxy-1,1′-biphenyl-2-yl)-4-methyl-7,8-dihydroquinazolin-5(6H)-one], the IC50 fell in the range of 1000 to 10000 nM.

For `COc1cccc(C2=CCCCC2)c1C1CC(=O)c2c(C)nc(N)nc2C1` (centres unmarked) [Compound 78, 2-amino-7-(2-cyclohex-1-en-1-yl-6-methoxyphenyl)-4-methyl-7,8-dihydroquinazolin-5(6H)-one], the IC50 was below 1000 nM.

On to `Cc1nc(N)nc2c1C(=O)CC(c1ccccc1-c1cccc(N(C)C)c1)C2` (centres unmarked) [Compound 93, 2-amino-7-[3′-(dimethylamino)-1,1′-biphenyl-2-yl]-4-methyl-7,8-dihydroquinazolin-5(6H)-one], for which the IC50 is above 10000 nM.

For the compound `Cc1nc(N)nc2c1C(=O)CC(c1ccccc1N1CCOCC1)C2` (centres unmarked) [Compound 13, 2-amino-4-methyl-7-(2-morpholin-4-yl-phenyl)-7,8-dihydro-6H-quinazolin-5-one], the half-inhibitory concentration (IC50) was below 1000 nM.

With `CCOc1ccccc1C1CC(=O)c2c(C)nc(N)nc2C1` (centres unmarked) [Compound 148, 2-amino-7-(2-ethoxy-phenyl)-4-methyl-7,8-dihydro-6H-quinazolin-5-one], the IC50 was below 1000 nM.

In the case of `Cc1nc(N)nc2c1C(=O)CC(c1ccccc1-c1cccc(F)c1)C2` (centres unmarked) [Compound 52, 2-amino-7-(3′-fluoro-1,1′-biphenyl-2-yl)-4-methyl-7,8-dihydroquinazolin-5(6H)-one], the IC50 was below 1000 nM.

For the compound `Cc1nc(N)nc2c1C(=O)CC(c1ccccc1-c1cc(F)cnc1Cl)C2` (centres unmarked) [Compound 101, 2-amino-7-[2-(2-chloro-5-fluoropyridin-3-yl)phenyl]-4-methyl-7,8-dihydroquinazolin-5(6H)-one], the half-maximal inhibitory concentration (IC50) is below 1000 nM.

Regarding `Cc1nc(N)nc2c1C(=O)CC(c1ccccc1Oc1ccccn1)C2` (centres unmarked) [Compound 141, 2-amino-4-methyl-7-[2-(pyridin-2-yloxy)phenyl]-7,8-dihydroquinazolin-5(6H)-one], the IC50 was below 1000 nM.

As to `Cc1nc(N)nc2c1C(=O)CC(c1c(OCCN3CCOCC3)cccc1-c1cccnc1F)C2` (centres unmarked) [Compound 157, 2-amino-7-[2-(2-fluoro-pyridin-3-yl)-6-(2-morpholin-4-yl-ethoxy)-phenyl]-4-methyl-7,8-dihydro-6H-quinazolin-5-one], the IC50 was below 1000 nM.

Still in this assay, the particulars now being: Table II; read-out: Hsp90 IC50 Range.
`CCc1nc(N)nc2c1C(=O)CC(c1ccc(F)cc1-c1cnc(OC)c(OC)n1)C2` (centres unmarked) [Compound 324, 2-amino-7-[2-(5,6-dimethoxy-pyrazin-2-yl)-4-fluoro-phenyl]-4-ethyl-7,8-dihydro-6H-quinazolin-5-one]: the concentration for half-maximal inhibition (IC50) was below 1000 nM.

On to `Cc1nc(N)nc2c1C(=O)C(C)C(c1ccccc1)C2` (centres unmarked) [Compound 248, 2-amino-4,6-dimethyl-7-phenyl-7,8-dihydro-6H-quinazolin-5-one], for which the half-maximal inhibitory concentration (IC50) is below 1000 nM.

`COc1nc(-c2cc(F)ccc2C2CC(=O)c3c(C)nc(N)nc3C2)ncc1F` (centres unmarked) [Compound 224, 2-amino-7-[4-fluoro-2-(5-fluoro-4-methoxy-pyrimidin-2-yl)-phenyl]-4-methyl-7,8-dihydro-6H-quinazolin-5-one]: the half-maximal inhibitory concentration (IC50) is below 1000 nM.

As to `COc1cccc(-n2ccnc2[C@@H]2CC(=O)c3c(C)nc(N)nc3C2)n1` [Compound 204, (S)-2-amino-7-[1-(6-methoxy-pyridin-2-yl)-1H-imidazol-2-yl]-4-methyl-7,8-dihydro-6H-quinazolin-5-one], the IC50 was below 1000 nM.

Take `Cc1nc(N)nc2c1C(=O)CC(c1ccc(F)cc1OCc1ccccc1)C2` (centres unmarked) [Compound 265, 2-amino-7-(2-benzyloxy-4-fluoro-phenyl)-4-methyl-7,8-dihydro-6H-quinazolin-5-one]: the IC50 lay within 1000 to 10000 nM.

In the case of `Cc1nc(N)nc2c1C(=O)CC(c1cccc(F)c1-c1cccnc1F)C2` (centres unmarked) [Compound 222, 2-amino-7-[3-fluoro-2-(2-fluoro-pyridin-3-yl)-phenyl]-4-methyl-7,8-dihydro-6H-quinazolin-5-one], the concentration for half-maximal inhibition (IC50) was below 1000 nM.

For the compound `COc1ncc(-c2cc(F)ccc2[C@@H]2CC(=O)c3c(C)nc(N)nc3C2)nc1OC` [Compound 323, (S)-2-amino-7-[2-(5,6-dimethoxy-pyrazin-2-yl)-4-fluoro-phenyl]-4-methyl-7,8-dihydro-6H-quinazolin-5-one], the IC50 is below 1000 nM.

For the compound `Cc1nc(N)nc2c1C(=O)CC(c1c(F)cccc1-c1cncnc1)C2` (centres unmarked) [Compound 218, 2-amino-7-(2-fluoro-6-pyrimidin-5-yl-phenyl)-4-methyl-7,8-dihydro-6H-quinazolin-5-one], the IC50 is below 1000 nM.

As for `COc1ccc(F)c(-c2scnc2C2CC(=O)c3c(C)nc(N)nc3C2)c1` (centres unmarked) [Compound 289, 2-amino-7-[5-(2-fluoro-5-methoxy-phenyl)-thiazol-4-yl]-4-methyl-7,8-dihydro-6H-quinazolin-5-one], the IC50 is 1000 to 10000 nM.

`COc1nc(-c2cc(F)ccc2[C@@H]2CC(=O)c3c(C)nc(N)nc3C2)cnc1C` [Compound 332, (S)-2-amino-7-[4-fluoro-2-(6-methoxy-5-methyl-pyrazin-2-yl)-phenyl]-4-methyl-7,8-dihydro-6H-quinazolin-5-one]: the IC50 was below 1000 nM.

In the case of `Nc1ncc2c(n1)CC(c1ccc(F)cc1-c1cccnc1F)CC2=O` (centres unmarked) [Compound 277, 2-amino-7-[4-fluoro-2-(2-fluoro-pyridin-3-yl)-phenyl]-7,8-dihydro-6H-quinazolin-5-one], the IC50 was below 1000 nM.

Turning to `COc1ncncc1-c1cc(F)ccc1C1CC(=O)c2c(C)nc(N)nc2C1` (centres unmarked) [Compound 278, 2-amino-7-[4-fluoro-2-(4-methoxy-pyrimidin-5-yl)-phenyl]-4-methyl-7,8-dihydro-6H-quinazolin-5-one], the concentration for half-maximal inhibition (IC50) was below 1000 nM.

Take `COc1nc(-c2cc(F)ccc2[C@@H]2CC(=O)c3c(C)nc(N)nc3C2)cnc1N` [Compound 287, (S)-2-amino-7-[2-(5-amino-6-methoxy-pyrazin-2-yl)-4-fluoro-phenyl]-4-methyl-7,8-dihydro-6H-quinazolin-5-one]: the IC50 is below 1000 nM.

As to `CCc1nc(N)nc2c1C(=O)CC(c1ccccc1)C2` (centres unmarked) [Compound 210, 2-amino-4-ethyl-7-phenyl-7,8-dihydro-6H-quinazolin-5-one], the half-inhibitory concentration (IC50) was above 10000 nM.

`CCc1nc(N)nc2c1C(=O)CC(c1ccc(F)cc1Br)C2` (centres unmarked) [Compound 315, 2-amino-7-(2-bromo-4-fluoro-phenyl)-4-ethyl-7,8-dihydro-6H-quinazolin-5-one]: the half-maximal inhibitory concentration (IC50) was above 10000 nM.

For the compound `COCc1nc(N)nc2c1C(=O)CC(c1ccccc1)C2` (centres unmarked) [Compound 211, 2-amino-4-methoxymethyl-7-phenyl-7,8-dihydro-6H-quinazolin-5-one], the IC50 is above 10000 nM.

In the case of `COc1ccc(-c2cncc(OC)n2)c(C2CC(=O)c3c(C)nc(N)nc3C2)c1` (centres unmarked) [Compound 254, 2-amino-7-[5-methoxy-2-(6-methoxy-pyrazin-2-yl)-phenyl]-4-methyl-7,8-dihydro-6H-quinazolin-5-one], the IC50 is below 1000 nM.

For the compound `CC(=O)c1ccc(-c2cc(F)ccc2[C@@H]2CC(=O)c3c(C)nc(N)nc3C2)s1` [Compound 326, (S)-7-[2-(5-Acetyl-thiophen-2-yl)-4-fluoro-phenyl]-2-amino-4-methyl-7,8-dihydro-6H-quinazolin-5-one], the half-maximal inhibitory concentration (IC50) was in the range of 1000 to 10000 nM.

These data come from patent US20070027150A1 (priority 2005, published 2007).
